Data taken from the NIST ThermoML archive (doi:10.1021/je900414p).
± gives the expanded uncertainty stated by the source.

Test: xn = mol fraction of the nth substance listed
Settings: 283.15 K, Liquid

SMILES: CCOS(=O)(=O)[O-].CCn1cc[n+](C)c1 [1-ethyl-3-methylimidazolium ethyl sulfate] + CCO
- mass density (100 kPa, x1 = 0.05056): 868.1 ± 0.64 kg/m3
- mass density (100 kPa, x1 = 0.103): 925.77 ± 0.56 kg/m3
- mass density (100 kPa, x1 = 0.1247): 946.96 ± 0.53 kg/m3
- mass density (100 kPa, x1 = 0.2126): 1015.49 ± 0.47 kg/m3
- mass density (100 kPa, x1 = 0.2919): 1063.41 ± 0.52 kg/m3
- mass density (100 kPa, x1 = 0.3185): 1076.89 ± 0.53 kg/m3
- mass density (100 kPa, x1 = 0.4198): 1120.15 ± 0.6 kg/m3
- mass density (100 kPa, x1 = 0.4847): 1142.52 ± 0.63 kg/m3
- mass density (100 kPa, x1 = 0.5713): 1167.9 ± 0.68 kg/m3
- mass density (100 kPa, x1 = 0.6827): 1194.68 ± 0.72 kg/m3
- mass density (100 kPa, x1 = 0.7919): 1216.13 ± 0.76 kg/m3
- mass density (100 kPa, x1 = 0.9317): 1237.97 ± 0.81 kg/m3
- mass density (2500 kPa, x1 = 0.05056): 870 ± 0.69 kg/m3
- mass density (2500 kPa, x1 = 0.103): 927.45 ± 0.58 kg/m3
- mass density (2500 kPa, x1 = 0.1247): 948.54 ± 0.54 kg/m3
- mass density (2500 kPa, x1 = 0.2126): 1016.98 ± 0.48 kg/m3
- mass density (2500 kPa, x1 = 0.2919): 1064.67 ± 0.54 kg/m3
- mass density (2500 kPa, x1 = 0.3185): 1078.19 ± 0.56 kg/m3
- mass density (2500 kPa, x1 = 0.4198): 1121.36 ± 0.64 kg/m3
- mass density (2500 kPa, x1 = 0.4847): 1143.68 ± 0.69 kg/m3
- mass density (2500 kPa, x1 = 0.5713): 1169.02 ± 0.75 kg/m3
- mass density (2500 kPa, x1 = 0.6827): 1195.76 ± 0.81 kg/m3
- mass density (2500 kPa, x1 = 0.7919): 1217.15 ± 0.86 kg/m3
- mass density (2500 kPa, x1 = 0.9317): 1238.92 ± 0.92 kg/m3
- mass density (5000 kPa, x1 = 0.05056): 871.83 ± 0.74 kg/m3
- mass density (5000 kPa, x1 = 0.103): 929.13 ± 0.6 kg/m3
- mass density (5000 kPa, x1 = 0.1247): 950.16 ± 0.55 kg/m3
- mass density (5000 kPa, x1 = 0.2126): 1018.48 ± 0.48 kg/m3
- mass density (5000 kPa, x1 = 0.2919): 1066.03 ± 0.57 kg/m3
- mass density (5000 kPa, x1 = 0.3185): 1079.51 ± 0.59 kg/m3
- mass density (5000 kPa, x1 = 0.4198): 1122.61 ± 0.7 kg/m3
- mass density (5000 kPa, x1 = 0.4847): 1144.88 ± 0.76 kg/m3
- mass density (5000 kPa, x1 = 0.5713): 1170.16 ± 0.83 kg/m3
- mass density (5000 kPa, x1 = 0.6827): 1196.85 ± 0.9 kg/m3
- mass density (5000 kPa, x1 = 0.7919): 1218.19 ± 0.97 kg/m3
- mass density (5000 kPa, x1 = 0.9317): 1239.94 ± 1.1 kg/m3
- mass density (10000 kPa, x1 = 0.05056): 875.33 ± 0.84 kg/m3
- mass density (10000 kPa, x1 = 0.103): 932.41 ± 0.65 kg/m3
- mass density (10000 kPa, x1 = 0.1247): 953.34 ± 0.58 kg/m3
- mass density (10000 kPa, x1 = 0.2126): 1021.37 ± 0.5 kg/m3
- mass density (10000 kPa, x1 = 0.2919): 1068.69 ± 0.63 kg/m3
- mass density (10000 kPa, x1 = 0.3185): 1082.11 ± 0.66 kg/m3
- mass density (10000 kPa, x1 = 0.4198): 1125.05 ± 0.82 kg/m3
- mass density (10000 kPa, x1 = 0.4847): 1147.23 ± 0.9 kg/m3
- mass density (10000 kPa, x1 = 0.5713): 1172.41 ± 1 kg/m3
- mass density (10000 kPa, x1 = 0.6827): 1199 ± 1.1 kg/m3
- mass density (10000 kPa, x1 = 0.7919): 1220.26 ± 1.2 kg/m3
- mass density (10000 kPa, x1 = 0.9317): 1241.93 ± 1.3 kg/m3
- mass density (15000 kPa, x1 = 0.05056): 878.74 ± 0.93 kg/m3
- mass density (15000 kPa, x1 = 0.103): 935.57 ± 0.68 kg/m3
- mass density (15000 kPa, x1 = 0.1247): 956.4 ± 0.6 kg/m3
- mass density (15000 kPa, x1 = 0.2126): 1024.17 ± 0.52 kg/m3
- mass density (15000 kPa, x1 = 0.2919): 1071.27 ± 0.69 kg/m3
- mass density (15000 kPa, x1 = 0.3185): 1084.66 ± 0.75 kg/m3
- mass density (15000 kPa, x1 = 0.4198): 1127.44 ± 0.95 kg/m3
- mass density (15000 kPa, x1 = 0.4847): 1149.51 ± 1.1 kg/m3
- mass density (15000 kPa, x1 = 0.5713): 1174.61 ± 1.2 kg/m3
- mass density (15000 kPa, x1 = 0.6827): 1201.12 ± 1.4 kg/m3
- mass density (15000 kPa, x1 = 0.7919): 1222.32 ± 1.5 kg/m3
- mass density (15000 kPa, x1 = 0.9317): 1243.92 ± 1.6 kg/m3
- mass density (20000 kPa, x1 = 0.05056): 882.02 ± 1 kg/m3
- mass density (20000 kPa, x1 = 0.103): 938.63 ± 0.72 kg/m3
- mass density (20000 kPa, x1 = 0.1247): 959.38 ± 0.62 kg/m3
- mass density (20000 kPa, x1 = 0.2126): 1026.89 ± 0.55 kg/m3
- mass density (20000 kPa, x1 = 0.2919): 1073.82 ± 0.77 kg/m3
- mass density (20000 kPa, x1 = 0.3185): 1087.15 ± 0.84 kg/m3
- mass density (20000 kPa, x1 = 0.4198): 1129.77 ± 1.1 kg/m3
- mass density (20000 kPa, x1 = 0.4847): 1151.78 ± 1.3 kg/m3
- mass density (20000 kPa, x1 = 0.5713): 1176.78 ± 1.4 kg/m3
- mass density (20000 kPa, x1 = 0.6827): 1203.21 ± 1.6 kg/m3
- mass density (20000 kPa, x1 = 0.7919): 1224.34 ± 1.8 kg/m3
- mass density (20000 kPa, x1 = 0.9317): 1245.88 ± 1.9 kg/m3
- mass density (25000 kPa, x1 = 0.05056): 885.17 ± 1.1 kg/m3
- mass density (25000 kPa, x1 = 0.103): 941.59 ± 0.76 kg/m3
- mass density (25000 kPa, x1 = 0.1247): 962.25 ± 0.63 kg/m3
- mass density (25000 kPa, x1 = 0.2126): 1029.52 ± 0.58 kg/m3
- mass density (25000 kPa, x1 = 0.2919): 1076.29 ± 0.85 kg/m3
- mass density (25000 kPa, x1 = 0.3185): 1089.57 ± 0.93 kg/m3
- mass density (25000 kPa, x1 = 0.4198): 1132.05 ± 1.3 kg/m3
- mass density (25000 kPa, x1 = 0.4847): 1153.99 ± 1.4 kg/m3
- mass density (25000 kPa, x1 = 0.5713): 1178.91 ± 1.6 kg/m3
- mass density (25000 kPa, x1 = 0.6827): 1205.24 ± 1.9 kg/m3
- mass density (25000 kPa, x1 = 0.7919): 1226.31 ± 2 kg/m3
- mass density (25000 kPa, x1 = 0.9317): 1247.81 ± 2.2 kg/m3
- mass density (30000 kPa, x1 = 0.05056): 888.22 ± 1.2 kg/m3
- mass density (30000 kPa, x1 = 0.103): 944.47 ± 0.79 kg/m3
- mass density (30000 kPa, x1 = 0.1247): 965.06 ± 0.64 kg/m3
- mass density (30000 kPa, x1 = 0.2126): 1032.11 ± 0.61 kg/m3
- mass density (30000 kPa, x1 = 0.2919): 1078.72 ± 0.94 kg/m3
- mass density (30000 kPa, x1 = 0.3185): 1091.95 ± 1.1 kg/m3
- mass density (30000 kPa, x1 = 0.4198): 1134.29 ± 1.4 kg/m3
- mass density (30000 kPa, x1 = 0.4847): 1156.16 ± 1.6 kg/m3
- mass density (30000 kPa, x1 = 0.5713): 1181.01 ± 1.9 kg/m3
- mass density (30000 kPa, x1 = 0.6827): 1207.27 ± 2.1 kg/m3
- mass density (30000 kPa, x1 = 0.7919): 1228.28 ± 2.3 kg/m3
- mass density (30000 kPa, x1 = 0.9317): 1249.69 ± 2.5 kg/m3
- mass density (35000 kPa, x1 = 0.05056): 891.19 ± 1.3 kg/m3
- mass density (35000 kPa, x1 = 0.103): 947.26 ± 0.81 kg/m3
- mass density (35000 kPa, x1 = 0.1247): 967.8 ± 0.65 kg/m3
- mass density (35000 kPa, x1 = 0.2126): 1034.62 ± 0.66 kg/m3
- mass density (35000 kPa, x1 = 0.2919): 1081.08 ± 1.1 kg/m3
- mass density (35000 kPa, x1 = 0.3185): 1094.27 ± 1.2 kg/m3
- mass density (35000 kPa, x1 = 0.4198): 1136.48 ± 1.6 kg/m3
- mass density (35000 kPa, x1 = 0.4847): 1158.29 ± 1.9 kg/m3
- mass density (35000 kPa, x1 = 0.5713): 1183.08 ± 2.1 kg/m3
- mass density (35000 kPa, x1 = 0.6827): 1209.25 ± 2.4 kg/m3
- mass density (35000 kPa, x1 = 0.7919): 1230.19 ± 2.6 kg/m3
- mass density (35000 kPa, x1 = 0.9317): 1251.56 ± 2.8 kg/m3
